# In patent publication US7790899B2, “Synthesis of N-(4-fluorobenzyl)-N-(1-methylpiperidin-4-yl)-N′-(4-(2-methylpropyloxy)phenylmethyl)carbamide and its tartrate salt and crystalline forms” (ACADIA Pharmaceuticals, Inc., priority 2004, dated 2010):
# Experiments:
# physchem = settings: aqueous solubility
# [1] = Solubility statements in the description
# [2] = Stability of crystalline Form C at 60% RH and 25° C.; type: physicochemical; parameters: key to Powder X-Ray Diffraction (PXRD): C = Conforms with Reference; settings: for Assay (Active Ingredient %) / Individual Related Substances (%) / Moisture, KF (%) / Powder X-Ray Diffraction (PXRD) / Product Appearance / Total Related Substances (%) / Impurity D: 25° C./60% RH
# Procedure: (§1) A first batch of crystalline Form C was exposed to 60% RH (relative humidity) at 25° C. for 12 months and a second batch was exposed to 75% RH at 40° C. for 6 months. No changes in polymorphic purities were observed under all the conditions tested, and Form C was the only polymorph detected. The batches were tested for appearance, Total Drug Assay, Related Substances, moisture, and the presence of Impurity D. Appearance of the bulk drug substance was evaluated by visual inspection for color homogeneity, foreign material and texture. Total Drug Assay was determined on an HPLC system with UV detection at 226 nm. A Waters XTerra RP185 μm (4.6×250 mm) column was used at 30° C. The mobile phase was acetonitrile: 5 mM ammonium acetate, pH 10.0 (46:54 v/v). The injection volume aws 20 μL. The run time was 30 min with a flow rate of 1.0 mL/min. Related Substances were analyzed utilizing gradient reversed-phase HPLC with UV detection at 226 nm. A Waters Symmetry C183.5 μm, (150×4.6 mm) column was used at 35° C. Mobile phase A was water with 0.1% TFA and mobile phase B was acetonitrile with 0.1% TFA. The injection volume was 20 μL. The run time was 35 min with a flow rate of 1.0 mL/min. Related substances were quantitated by peak area percent. Moisture was determined with a 737 Karl Fischer Coulometric titrator. The apparatus was operated using Hydranal-Coulomat AG and Hydranal standard-0.1% water check solution-Coulomat AG.
# [3] = Stability test, thermal treatment (sealed ampoules, 100° C., HPLC purity); type: physicochemical; settings: 1 week
# Procedure: (§2) HPLC: HPLC measurements were carried out with a HP LC1090M, Column Symmetry C18, 3.0·150 mm.
# The compounds of Examples 3(b) (polymorph A), 25 (polymorph B), and 36 (polymorph C) were placed in sealed ampoules and exposed for 1 week to 100° C. […] The products where analyzed by HPLC and the purity was detected to indicate chemical stability via decomposition.
# [4] = Stability of crystalline Form C at 75% RH and 40° C.; type: physicochemical; parameters: key to Powder X-Ray Diffraction (PXRD): C = Conforms with Reference; settings: 40° C./75% RH
# Procedure: as §1
# [5] = Stability of the crystal forms (general findings); type: physicochemical
# [6] = Water absorption and behaviour on exposure to relative humidity; type: physicochemical
# [7] = Stability test, exposure to humidity (open containers, 60° C., 75% relative humidity); type: physicochemical; settings: 1 week and 2 weeks
# Procedure: as §2
# The compounds of Examples 3(b) (polymorph A), 25 (polymorph B), and 36 (polymorph C) were placed in open containers and exposed 1 week and 2 weeks at 60° C. and 75% relative humidity. In polymorph A, a water content of 2.8% was detected and the HPLC purity was 80%.
# [8] = Approximate solubility of Form A: saturated solutions, gravimetric determination after solvent removal; type: physicochemical
# Procedure: Approximate solubility was measured by preparation of saturated solutions in various solvents and gravimetric determination of dissolved substance after solvent removal.
structure (smiles),measurement,setting,value
"CC(C)COc1ccc(CNC(=O)N(Cc2ccc(F)cc2)C2CCN(C)CC2)cc1 [Form E, N-(4-fluorobenzyl)-N-(1-methylpiperidin-4-yl)-N′-(4-(2-methylpropyloxy)phenylmethyl)carbamide hemi-tartrate]",solubility,physchem,> 200000 µg/mL
"CC(C)COc1ccc(CNC(=O)N(Cc2ccc(F)cc2)C2CCN(C)CC2)cc1 [Form C, N-(4-fluorobenzyl)-N-(1-methylpiperidin-4-yl)-N′-(4-(2-methylpropyloxy)phenylmethyl)carbamide hemi-tartrate]",aqueous solubility,[1]; depends on the pH in aqueous environments,50000 to 100000 µg/mL
same,Solubility in water or aqueous systems (in words),[1],very high
same,Assay (Active Ingredient %),[2]; 0 M,99.8%
same,Individual Related Substances (%),[2]; 0 M,0.06%
same,"Moisture, KF (%)",[2]; 0 M,0.3%
same,Powder X-Ray Diffraction (PXRD),[2]; 0 M,C
same,Product Appearance,[2]; 0 M,Conforms
same,Total Related Substances (%),[2]; 0 M,0.06%
same,Assay (Active Ingredient %),[2]; 1 M,99.8%
same,Individual Related Substances (%),[2]; 1 M,0.05%
same,"Moisture, KF (%)",[2]; 1 M,<0.1%
same,Powder X-Ray Diffraction (PXRD),[2]; 1 M,C
same,Product Appearance,[2]; 1 M,Conforms
same,Total Related Substances (%),[2]; 1 M,0.05%
same,Assay (Active Ingredient %),[2]; 3 M,99.7%
same,Individual Related Substances (%),[2]; 3 M,<0.05%
same,"Moisture, KF (%)",[2]; 3 M,<0.1%
same,Product Appearance,[2]; 3 M,Conforms
same,Total Related Substances (%),[2]; 3 M,<0.05%
same,Assay (Active Ingredient %),[2]; 6 M,99.8%
same,Individual Related Substances (%),[2]; 6 M,0.06%
same,"Moisture, KF (%)",[2]; 6 M,0.2%
same,Powder X-Ray Diffraction (PXRD),[2]; 6 M,C
same,Product Appearance,[2]; 6 M,Conforms
same,Total Related Substances (%),[2]; 6 M,<0.06%
same,Assay (Active Ingredient %),[2]; 9 M,99.4%
same,Impurity D,[2]; 9 M,0.2
same,Individual Related Substances (%),[2]; 9 M,<0.05%
same,"Moisture, KF (%)",[2]; 9 M,<0.1%
same,Powder X-Ray Diffraction (PXRD),[2]; 9 M,C
same,Product Appearance,[2]; 9 M,Conforms
same,Total Related Substances (%),[2]; 9 M,<0.05%
same,Assay (Active Ingredient %),[2]; 12 M,99.1%
same,Impurity D,[2]; 12 M,0.2
same,Individual Related Substances (%),[2]; 12 M,0.05%
same,"Moisture, KF (%)",[2]; 12 M,<0.1%
same,Powder X-Ray Diffraction (PXRD),[2]; 12 M,C
same,Product Appearance,[2]; 12 M,Conforms
same,Total Related Substances (%),[2]; 12 M,0.05%
same,Changes in polymorphic purities,[2]; 60% RH at 25° C. for 12 months and 75% RH at 40° C. for 6 months,No changes
same,HPLC purity after thermal treatment,[3],99.7%
same,State of the material after thermal treatment,[3],substantially unchanged
same,Assay (Active Ingredient %),[4]; 0 M,99.8%
same,Individual Related Substances (%),[4]; 0 M,0.06%
same,"Moisture, KF (%)",[4]; 0 M,0.3%
same,Powder X-Ray Diffraction (PXRD),[4]; 0 M,C
same,Total Related Substances (%),[4]; 0 M,0.06%
same,Assay (Active Ingredient %),[4]; 1 M,99.8%
same,Individual Related Substances (%),[4]; 1 M,0.05%
same,"Moisture, KF (%)",[4]; 1 M,<0.1%
same,Powder X-Ray Diffraction (PXRD),[4]; 1 M,C
same,Total Related Substances (%),[4]; 1 M,0.05%
same,Assay (Active Ingredient %),[4]; 3 M,99.5%
same,Individual Related Substances (%),[4]; 3 M,<0.05%
same,"Moisture, KF (%)",[4]; 3 M,<0.1%
same,Total Related Substances (%),[4]; 3 M,<0.05%
same,Assay (Active Ingredient %),[4]; 6 M,99.7%
same,Individual Related Substances (%),[4]; 6 M,0.23%
same,"Moisture, KF (%)",[4]; 6 M,0.1%
same,Powder X-Ray Diffraction (PXRD),[4]; 6 M,C
same,Total Related Substances (%),[4]; 6 M,0.23%
same,Stability compared with all found crystal forms,[5],most stable form
same,Dynamic pour absorption experiments: water absorption,[6],does not absorb water
same,Stability in an open container,"[6]; 75% relative humidity, open container",stable
same,Deliquescence or hygroscopicity,[6]; about 95% relative humidity,no deliquescence or hygroscopicity
same,Water absorption,[6]; at about 95% relative humidity,about 1%
same,Change of crystal form after exposure to humidity,[7],remained unchanged
same,HPLC purity after exposure to humidity,[7],99.7%
"CC(C)COc1ccc(CNC(=O)N(Cc2ccc(F)cc2)C2CCN(C)CC2)cc1.CC(C)COc1ccc(CNC(=O)N(Cc2ccc(F)cc2)C2CCN(C)CC2)cc1.O=C(O)C(O)C(O)C(=O)O [Form A, N-(4-fluorobenzyl)-N-(1-methylpiperidin-4-yl)-N′-(4-(2-methylpropyloxy)phenylmethyl)carbamide hemi-tartrate]",amount that can be dissolved in tetrahydrofuran,"[1]; tetrahydrofuran, reflux temperature",about 200 mg/ml
same,Solubility in water or aqueous systems (in words),[1],well soluble
same,State of the material after thermal treatment,[3],formed a deliquescent compact material
same,HPLC purity after thermal treatment,[3]; listed as polymorph A,25.9%
same,solubility,"[8]; aqueous with cosolvent or surfactant or cyclodextrin, thermodynamic from solid, acetone/water (1:1), read-out: Solubility",> 200000 µg/mL
same,solubility,[8]; ethanol,>10000 µg/mL
same,solubility,"[8]; organic solvent or mixture, thermodynamic from solid, 1,4-dioxane, read-out: Solubility",~2000 µg/mL
same,solubility,"[8]; organic solvent or mixture, thermodynamic from solid, 2-propanol, read-out: Solubility",~1000 µg/mL
same,solubility,"[8]; organic solvent or mixture, thermodynamic from solid, 2-propanol/water (9:1), read-out: Solubility",< 1000 µg/mL
same,solubility,"[8]; organic solvent or mixture, thermodynamic from solid, acetone, read-out: Solubility",~2000 µg/mL
same,solubility,"[8]; organic solvent or mixture, thermodynamic from solid, acetonitrile, read-out: Solubility",~2000 µg/mL
same,solubility,"[8]; organic solvent or mixture, thermodynamic from solid, dichloromethane, read-out: Solubility",> 30000 µg/mL
same,solubility,"[8]; organic solvent or mixture, thermodynamic from solid, dimethylsulfoxide, read-out: Solubility",> 200000 µg/mL
same,solubility,"[8]; organic solvent or mixture, thermodynamic from solid, ethyl acetate, read-out: Solubility",< 1000 µg/mL
same,solubility,"[8]; organic solvent or mixture, thermodynamic from solid, methanol, read-out: Solubility",> 100000 µg/mL
same,solubility,"[8]; organic solvent or mixture, thermodynamic from solid, methyl ethyl ketone, read-out: Solubility",< 1000 µg/mL
same,solubility,"[8]; organic solvent or mixture, thermodynamic from solid, t-butyl methyl ether, read-out: Solubility",< 1000 µg/mL
same,solubility,"[8]; organic solvent or mixture, thermodynamic from solid, toluene, read-out: Solubility",< 1000 µg/mL
same,solubility,[8]; tetrahydrofuran,>5000 µg/mL
same,solubility,"[8]; thermodynamic from solid, water, read-out: Solubility",> 300000 µg/mL
same,Stability at ambient temperatures,[5]; ambient temperatures,stable
same,Water uptake when exposed to humidity,[6]; above 75% relative humidity,considerable water uptake
same,Stability under ambient water partial pressures,[6]; relative humidities between 20% and 75%,sufficient stability
same,HPLC purity after exposure to humidity,[7]; listed as polymorph A,80%
same,water content after exposure to humidity,[7]; listed as polymorph A,2.8%
